These results are taken from USRE48842E1, “Pyrimido-pyrrolo-oxazine-dione compound inhibitors of the cystic fibrosis transmembrane conductance regulator protein and uses therefor” (The Regents of the University of California, priority 2011, dated 2021).

Like-named read-outs stand apart in the source and are kept apart here.

The nature of series [1]: In vitro metabolism in hepatic microsomes (LC/MS). It is filed as in vitro ADME, rat. The conditions noted are these: for compound disappearance (loss) in hepatic microsomes: 30 min, 37° C. The procedure:
(§1) In Vitro Metabolism in Hepatic Microsomes—A compound of structure (I) was incubated for specified times at 37° C. with rat liver microsomes (e.g., 1 mg protein/ml; Sigma-Aldrich, St. Louis, Mo.) in potassium phosphate buffer (100 mM) containing NADPH (0 or 1 mM). The mixture was then chilled on ice, and 0.5 ml of ice-cold ethyl acetate was added. Samples were centrifuged for 15 min at 3,000 rpm, and the supernatant was evaporated to dryness under nitrogen. The residue was dissolved in 150 μl mobile phase (acetonitrile:water 3:1, containing 0.1% formic acid) for LC/MS analysis. Reverse-phase HPLC separations were carried out using a Waters C18 column (2.1×100 mm, […]) equipped with a solvent delivery system (Waters model 2690, Milford, Mass.). The solvent system consisted of a linear gradient from 5 to 95% acetonitrile run over 16 min (0.2 mL/min flow rate). Mass spectra were acquired on an Alliance HT 2790+ZQ mass spectrometer using negative ion detection.
as §1, with “Liquid Chromatography/Mass Spectrometry—Compounds (each at 5 μM) were” for “In Vitro Metabolism in Hepatic Microsomes—A compound of structure (I) was”, “(1” for “(e.g., 1”, “150” for “150 μl”, “detection, scanning from 150 to 1500 Da. The electrospray ion source parameters were as follows: capillary voltage 3.5 kV (positive ion mode), cone voltage 37 V, source temperature 120° C., desolvation temperature 250° C., cone gas flow 25 L/h, and dessolvation gas flow 350 L/h.” for “detection.”
PPQ-102 is a small-molecule inhibitor of CFTR chloride conductance with efficacy in preventing and reversing cyst formation in an organ culture model of PKD (see, e.g., Tradtrantip et al., J. Med. Chem. 2009, supra; Int'l Patent Appl. Publication No. WO 2011/019737). Preliminary analysis of the metabolic stability and aqueous solubility of PPQ-102, indicated poorer metabolic stability and lower water solubility (˜2 μM in albumin-free saline) than desired for optimal drugability. In vitro metabolic stability was determined by compound incubation with hepatic microsomes at 37° C. for specified times in the absence vs. presence of NADPH, following by LC/MS analysis. Shown in FIG. 6A is PPQ-102 disappearance in hepatic microsomes in the presence of NADPH, with ˜60% disappearance in 30 min.

Another series concerns the target human wildtype CFTR (Homo sapiens, UniProt P13569). Nature of the series: Short-circuit current analysis of CFTR inhibition in CFTR-expressing FRT cells. It is filed as cell-based. Also noted: expressed in transfected cells; host or cells: Fischer rat thyroid (FRT) epithelial cells on Snapwell inserts. Here is the method: Short-Circuit Current—Snapwell inserts containing CFTR-expressing FRT cells were mounted in an Ussing chamber. The hemichambers contained 5 mL of buffer containing 75 mM NaCl and 75 mM Na gluconate (apical) and 150 mM NaCl (basolateral) (pH 7.3), and the basolateral membrane was permeabilized with 250 μg/mL amphotericin B, as described (see, e.g., Sonawane et al., FASEB J 2006, supra). Short-circuit current was recorded continuously using a DVC-1000 voltage clamp (World Precision Instruments) using Ag/AgCl electrodes and 3 M KCl agar bridges.
Current was measured in CFTR-expressing FRT cells in which the basolateral membrane was permeabilized and in the presence of a transepithelial chloride concentration gradient, so that current is a quantitative linear measure of CFTR function. CFTR was activated by forskolin, followed by serial additions of increasing concentrations of test compounds.
CFTR inhibition potency was measured by short-circuit current analysis in FRT epithelial cells expressing human CFTR in presence of a transepithelial chloride gradient and in which the basolateral membrane was permeabilized with amphotericin B. Under these conditions short-circuit current is proportional to CFTR chloride conductance.

Series [2] concerns E13.5 embryonic kidneys. Conditions: from Tradtrantip et al., J. Med. Chem. 2009; read-out: IC50 for inhibition of cyst growth; cited from earlier work.
A further series addresses CFTR (Homo sapiens, UniProt P13569). The conditions noted are these: literature values; read-out: IC50 for CFTR inhibition; cited from earlier work.
The test system of series [3] is E13.5 embryonic kidneys. Nature of the series: Embryonic kidney organ culture model of PKD (8-Br-cAMP-induced cyst growth). Type of series: cell-based, mouse. Here is the method:
Embryonic Organ Culture Model of PKD—Mouse embryos were obtained at embryonic day 13.5 (E13.5). Metanephroi were dissected and placed on transparent Falcon […] porous cell culture inserts as described (see, e.g., Tradtrantip et al., J. Med. Chem. 2009, supra). To the culture inserts was added DMEM/Ham's F-12 nutrient medium supplemented with 2 mM L-glutamine, 10 mM HEPES, 5 μg/mL insulin, 5 μg/mL transferrin, 2.8 nM selenium, 25 ng/ml prostaglandin E, 32 pg/ml T3, 250 U/ml penicillin, and 250 μg/ml streptomycin. Kidneys were maintained in a 37° C. humidified CO2 incubator for up to 8 days. Culture medium containing 100 μM 8-Br-cAMP, with or without test compound, was replaced (in the lower chamber) every 12 h. Kidneys were photographed using a Nikon inverted microscope (Nikon TE 2000-S) equipped with 2× objective lens, 520 nm bandpass filter, and high-resolution CCD camera. Percentage cyst area was calculated as total cyst area divided by total kidney area.
An established embryonic ex vivo kidney organ culture model of PKD was used to test BPO-27 (racemic mixture of R and S forms) efficacy in reducing cAMP agonist-induced renal cystogenesis (see Example 30). […]

The mark [4] stands for this setting: short-circuit current, FRT cells expressing human CFTR, forskolin-stimulated, read-out: IC50 for inhibition of CFTR chloride conductance.

Sequence of human wildtype CFTR (P13569 whole entry): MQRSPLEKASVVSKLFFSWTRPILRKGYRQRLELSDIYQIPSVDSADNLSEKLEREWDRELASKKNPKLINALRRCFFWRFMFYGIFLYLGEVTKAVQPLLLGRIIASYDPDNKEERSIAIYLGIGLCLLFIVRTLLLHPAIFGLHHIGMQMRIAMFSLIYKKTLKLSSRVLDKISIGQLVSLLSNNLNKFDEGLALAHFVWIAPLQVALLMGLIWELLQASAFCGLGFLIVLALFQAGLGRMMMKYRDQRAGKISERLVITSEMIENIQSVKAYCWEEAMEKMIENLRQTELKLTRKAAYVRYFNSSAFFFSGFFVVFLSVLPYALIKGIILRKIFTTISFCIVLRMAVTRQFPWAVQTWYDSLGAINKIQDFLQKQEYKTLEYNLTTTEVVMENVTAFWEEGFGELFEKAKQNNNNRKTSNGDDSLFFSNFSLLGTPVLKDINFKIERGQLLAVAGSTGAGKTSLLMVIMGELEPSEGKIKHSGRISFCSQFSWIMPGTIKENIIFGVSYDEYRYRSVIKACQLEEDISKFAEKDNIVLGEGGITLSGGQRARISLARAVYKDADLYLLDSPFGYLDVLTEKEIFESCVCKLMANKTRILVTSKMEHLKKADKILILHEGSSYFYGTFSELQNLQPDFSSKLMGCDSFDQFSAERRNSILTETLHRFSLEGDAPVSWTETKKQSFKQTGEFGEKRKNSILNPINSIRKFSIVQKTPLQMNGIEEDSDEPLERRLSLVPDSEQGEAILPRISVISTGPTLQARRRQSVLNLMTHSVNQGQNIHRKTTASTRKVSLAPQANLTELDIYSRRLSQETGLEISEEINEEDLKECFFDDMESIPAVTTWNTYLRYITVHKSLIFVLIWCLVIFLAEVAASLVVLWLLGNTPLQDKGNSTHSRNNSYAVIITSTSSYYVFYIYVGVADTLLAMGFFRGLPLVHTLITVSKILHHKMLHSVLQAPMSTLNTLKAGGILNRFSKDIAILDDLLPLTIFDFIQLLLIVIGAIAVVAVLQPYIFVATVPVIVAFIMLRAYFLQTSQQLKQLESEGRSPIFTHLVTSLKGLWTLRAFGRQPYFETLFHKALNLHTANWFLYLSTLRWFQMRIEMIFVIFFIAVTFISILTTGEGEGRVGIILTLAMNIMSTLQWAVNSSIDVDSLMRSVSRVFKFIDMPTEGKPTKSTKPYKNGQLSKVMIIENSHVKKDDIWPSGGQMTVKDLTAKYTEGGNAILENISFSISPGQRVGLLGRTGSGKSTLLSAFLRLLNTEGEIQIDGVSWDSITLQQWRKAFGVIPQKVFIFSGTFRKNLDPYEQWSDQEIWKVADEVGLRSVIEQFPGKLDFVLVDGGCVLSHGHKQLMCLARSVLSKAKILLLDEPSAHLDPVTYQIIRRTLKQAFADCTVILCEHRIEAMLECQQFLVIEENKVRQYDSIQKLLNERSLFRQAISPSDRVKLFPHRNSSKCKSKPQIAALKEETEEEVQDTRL
Sequence of CFTR (P13569 whole entry, species assumed): as the sequence (P13569 whole entry) above

On to `Cc1ccc(C2Nc3ccccc3-n3c(-c4ccccc4)c4c(=O)n(C)c(=O)n(C)c4c32)o1` (stereo not drawn) [PPQ-102, 7,9-Dimethyl-6-(5-methylfuran-2-yl)-11-phenyl-5,6-dihydropyrimido[4′,5′-3,4]pyrrolo[1,2-a]quinoxaline-8,10-(7H,9H)-dione, reference compound], for which the “compound disappearance (loss) in hepatic microsomes” value in series [1] (in the presence of NADPH) is about 60%. The “compound metabolized in hepatic microsomes” value in series [1] (4 h, in the presence of NADPH) is over 75%. Moreover, in series [1] (in the absence of NADPH), the “compound loss in hepatic microsomes” value is given as “No loss”. Moreover, the 50% inhibitory concentration (IC50) at human wildtype CFTR (setting [4]) is 0.1 µM; in the series on E13.5 embryonic kidneys [2], over 500 nM; at CFTR it was about 90 nM.
Consider `Cn1c(=O)c2c(-c3ccccc3)n3c(c2n(C)c1=O)C(c1ccc(Br)o1)Oc1ccc(C(=O)O)cc1-3` (racemic) [BPO-27, 6-(5-Bromofuran-2-yl)-7,9-dimethyl-8,10-dioxo-11-phenyl-7,8,9,10-tetrahydro-6H-benzo[b]pyrimido[4′,5′:3,4]pyrrolo[1,2-d][1,4]oxazine-2-carboxylic acid], for which the “compound disappearance (loss) in hepatic microsomes” value in series [1] (in the presence of NADPH) was under 5%. Further, in series [1] (in the presence of NADPH), the “metabolic stability in hepatic microsomes (in words)” value was “excellent stability”. Moreover, the IC50 was 0.008 µM on human wildtype CFTR (Determined by short-circuit current assay, read-out: IC50 (μM)^B); about 0.008 µM on human wildtype CFTR (setting [4]); about 100 nM with E13.5 embryonic kidneys [3] (Mus musculus, 100 μM 8-Br-cAMP, racemic mixture, read-out: IC50 for inhibition of cyst growth (percentage area occupied by cysts)). Besides, the “cyst growth in 8-Br-cAMP-treated kidney (in words)” value with E13.5 embryonic kidneys [3] (compound in culture medium, 0.1 or 1 μM) is listed as “remarkably reduced”.

The IC50 is the concentration that inhibits the measured activity by half.
